In BindingDB's records for doi:10.1016/j.chembiol.2004.11.007 (University of Sheffield, 2005):

Target: Calmodulin-1 (Homo sapiens, UniProt P0DP23)
Experiment: Fluorescence spectroscopy
Description: Experiments were conducted with HITACHI-4500 and Shimadzu RF-5301 fluorescence spectrophotometer.

Row | Kd | Structure (SMILES)
1 | 9 µM | COC(=O)[C@@H](CC(=O)Cc1ccc(/C=C/c2ccc(CC(=O)C[C@@H](Cc3c[nH]c4ccccc34)C(=O)OC)cc2)cc1)Cc1c[nH]c2ccccc12 [BT2]
2 | 10 µM | COC(=O)[C@@H](CC(=O)c1cccc(C(=O)C[C@@H](Cc2c[nH]c3ccccc23)C(=O)OC)c1)Cc1c[nH]c2ccccc12 [BT1]
3 | 0.01 µM | O=S(=O)(Nc1cccc(NS(=O)(=O)c2cccc3ccccc23)c1)c1cccc2ccccc12 [BN2]
4 | 0.07 µM | O=S(=O)(Nc1ccc(NS(=O)(=O)c2cccc3ccccc23)cc1)c1cccc2ccccc12 [BN1]
